PubChem BioAssay (NCI)
Several values for one entry are separate records, joined by “and”; a condition that tells them apart may be missing. Equal values may be shown once.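 Grown in 96-well plates, cells were treated for 48 hours with each compound at five concentrations. Insufficient inhibition: endpoint recorded as highest concentration tested. At the GI50, growth is halved. At the TGI there is no net growth.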

Key:
Assay in all cases: NCI-60 cell line screen, 48 h
ACHN renal = test system: ACHN renal
SF-268 CNS = test system: SF-268 CNS
MDA-MB-231 breast = test system: MDA-MB-231 breast
HCT-116 colon = test system: HCT-116 colon
UACC-257 melanoma = test system: UACC-257 melanoma
NCI-H226 lung = test system: NCI-H226 lung
SNB-19 CNS = test system: SNB-19 CNS
IGROV1 ovarian = test system: IGROV1 ovarian
OVCAR-5 ovarian = test system: OVCAR-5 ovarian
U251 CNS = test system: U251 CNS
SW-620 colon = test system: SW-620 colon
RXF 393 renal = test system: RXF 393 renal
SF-539 CNS = test system: SF-539 CNS

Compound | TGI (ACHN renal) | TGI (SF-268 CNS) | TGI (MDA-MB-231 breast) | TGI (HCT-116 colon) | TGI (UACC-257 melanoma) | TGI (NCI-H226 lung) | TGI (SNB-19 CNS) | TGI (IGROV1 ovarian) | TGI (OVCAR-5 ovarian) | TGI (U251 CNS) | TGI (SW-620 colon) | TGI (RXF 393 renal) | TGI (SF-539 CNS) | GI50 (ACHN renal) | GI50 (SF-268 CNS) | GI50 (HCT-116 colon) | GI50 (NCI-H226 lung) | GI50 (OVCAR-5 ovarian) | GI50 (SW-620 colon) | GI50 (RXF 393 renal)
c1ccc(C[n+]2cccc(-c3cc4ccccc4[nH]3)c2)cc1 | > 100 µM | > 100 µM | > 100 µM | > 100 µM | 32.3 µM | > 100 µM | > 100 µM | 42.6 µM | > 100 µM | > 100 µM | > 100 µM | > 100 µM | – | – | – | – | – | – | – | –
CCCCC(=O)Oc1ccc2c(C)cc(=O)oc2c1 | > 100 µM | > 100 µM | > 100 µM | > 100 µM | > 100 µM | > 100 µM | > 100 µM | > 100 µM | > 100 µM | > 100 µM | > 100 µM | > 100 µM | > 100 µM | – | – | – | – | – | – | –
COc1ccc(Cc2nccc3cc(OC)c(OC)cc23)cc1OC | > 100 µM | > 100 µM | > 100 µM | > 100 µM | > 100 µM | > 100 µM | > 100 µM | > 100 µM | > 100 µM | > 100 µM | > 100 µM | – | > 100 µM | – | – | – | – | – | – | –
c1ccc(-c2nnc(-c3nsc4ccccc34)o2)cc1 | – | > 100 µM | – | > 100 µM | > 100 µM | – | > 100 µM | > 100 µM | > 100 µM | > 100 µM | > 100 µM | > 100 µM | > 100 µM | – | – | – | – | – | – | –
CCOC(=O)C1=C(C)N(NC(N)=O)C2(O)CCCC(=O)C12C (stereo not given) | > 100 µM | – | – | – | > 100 µM | > 100 µM | > 100 µM | > 100 µM | > 100 µM | > 100 µM | > 100 µM | > 100 µM | > 100 µM | – | – | – | – | – | – | –
CC(C)C1OC(/C=C/c2ccccc2)OCC1(C)C (stereo not given) | > 100 µM | > 100 µM | 94.7 µM | 92 µM | 63.6 µM | 63 µM | > 100 µM | > 100 µM | > 100 µM | 60.8 µM | > 100 µM | 42.3 µM | – | – | – | – | – | – | – | –
O=C(O)c1oc(C(=O)O)c(C(=O)O)c1C(=O)O | > 100 µM | > 100 µM | > 100 µM | > 100 µM | > 100 µM | > 100 µM | > 100 µM | > 100 µM | > 100 µM | > 100 µM | > 100 µM | > 100 µM | – | – | – | – | – | – | – | –
COc1cccc(CC2Cc3ccccc3CC(=O)N2)c1 (stereo not given) | > 100 µM | > 100 µM | 79.2 µM | > 100 µM | > 100 µM | > 100 µM | > 100 µM | > 100 µM | > 100 µM | > 100 µM | > 100 µM | > 100 µM | > 100 µM | – | – | – | – | – | – | –
CCCCS(=O)(=O)Nc1ccc(Nc2c3ccccc3nc3ccccc23)c(OC)c1 | – | 14.5 µM | – | 8.11 µM | 18.6 µM | 16.9 µM | 14.5 µM | 24.9 µM | 26.6 µM | 5.85 µM | 14.2 µM | 11 µM | 5.98 µM | – | – | – | – | – | – | –
N=C(N)SCc1cccc2c(=O)cc(-c3ccccc3)oc12 | 15.5 µM | 45.8 µM | 21.4 µM | 19.7 µM | 26 µM | 58 µM | > 61.1 µM | 30.2 µM | 41.8 µM | 27.3 µM | > 39.3 µM | 19.5 µM | 20.9 µM | – | – | – | – | – | – | –
C/C(=C\c1ccc(Cl)c(Cl)c1)[N+](=O)[O-] | 3.6 µM and 3.82 µM | 3.31 µM and 3.33 µM | 3.94 µM | 2.85 µM and 10.2 µM | 2.56 µM and 2.84 µM | 42.6 µM and 5.26 µM | 9.45 µM | 3.85 µM | 5.09 µM and 4.62 µM | 2.71 µM | – | 2.9 µM | 5.77 µM | 1.77 µM | 1.66 µM | 1.37 µM | 17.5 µM | 2.25 µM | 1.33 µM | 1.51 µM
OC1CN2Cc3cc4c(cc3[C@]13C=C[C@@H](O)CC23)OCO4 (stereo not given in full) | > 100 µM | > 100 µM | > 100 µM | > 100 µM | 34.9 µM | > 100 µM | > 100 µM | > 100 µM | > 100 µM | > 100 µM | > 100 µM | 58.6 µM | > 100 µM | – | – | – | – | – | – | –
NC(CCOCCP(=O)(O)CCOCCC(N)C(=O)O)C(=O)O (stereo not given) | > 100 µM | > 100 µM | > 100 µM | > 100 µM | > 100 µM | – | > 100 µM | > 100 µM | > 100 µM | > 100 µM | > 100 µM | > 100 µM | > 100 µM | – | – | – | – | – | – | –
O=C(O)C12CCCC(CCC1)C2 | > 100 µM | > 100 µM | – | > 100 µM | > 100 µM | – | > 100 µM | > 100 µM | > 100 µM | > 100 µM | > 100 µM | > 100 µM | > 100 µM | – | – | – | – | – | – | –
O=C1OCc2cccc3c2-c2c1cccc2C(=O)OC3 | – | > 100 µM | – | > 100 µM | – | – | > 100 µM | > 100 µM | – | > 100 µM | – | > 100 µM | > 100 µM | – | – | – | – | – | – | –
CC(C)NCCC(O)c1cc2ccccc2o1 (stereo not given) | > 100 µM | > 100 µM | > 100 µM | > 100 µM | > 100 µM | > 100 µM | > 100 µM | > 100 µM | > 100 µM | > 100 µM | > 100 µM | > 100 µM | > 100 µM | – | – | – | – | – | – | –
O=C1/C(=C/c2ccc(Cl)cc2)N=C(c2ccccc2)N1c1ccc(S(=O)(=O)Nc2nccs2)cc1 | > 100 µM | > 100 µM | 55.9 µM | > 100 µM | > 100 µM | > 100 µM | > 100 µM | – | > 100 µM | > 100 µM | > 100 µM | > 100 µM | > 100 µM | – | – | – | – | – | – | –
